Measured values: paper PMC9841576, “Characterisation of C101248: A novel selective THIK-1 channel inhibitor for the modulation of microglial NLRP3-inflammasome” (Neuropharmacology, 2023)
pIC50: −log10 of the molar value. Where two headings read alike, the source gives them in different places.

Tests used:
Kv2.1 = target: T1, Kv2.1 (Homo sapiens, UniProt Q14721); test: FLIPR thallium influx assay, potassium sulphate stimulated CHO-Kv2.1 cells; format: cell-based; conditions: potassium sulphate stimulated CHO-Kv2.1, at 30 μM; read-out: inhibition of thallium flux
T1 construct: host or cells: CHO
T1 sequence (Q14721 whole entry): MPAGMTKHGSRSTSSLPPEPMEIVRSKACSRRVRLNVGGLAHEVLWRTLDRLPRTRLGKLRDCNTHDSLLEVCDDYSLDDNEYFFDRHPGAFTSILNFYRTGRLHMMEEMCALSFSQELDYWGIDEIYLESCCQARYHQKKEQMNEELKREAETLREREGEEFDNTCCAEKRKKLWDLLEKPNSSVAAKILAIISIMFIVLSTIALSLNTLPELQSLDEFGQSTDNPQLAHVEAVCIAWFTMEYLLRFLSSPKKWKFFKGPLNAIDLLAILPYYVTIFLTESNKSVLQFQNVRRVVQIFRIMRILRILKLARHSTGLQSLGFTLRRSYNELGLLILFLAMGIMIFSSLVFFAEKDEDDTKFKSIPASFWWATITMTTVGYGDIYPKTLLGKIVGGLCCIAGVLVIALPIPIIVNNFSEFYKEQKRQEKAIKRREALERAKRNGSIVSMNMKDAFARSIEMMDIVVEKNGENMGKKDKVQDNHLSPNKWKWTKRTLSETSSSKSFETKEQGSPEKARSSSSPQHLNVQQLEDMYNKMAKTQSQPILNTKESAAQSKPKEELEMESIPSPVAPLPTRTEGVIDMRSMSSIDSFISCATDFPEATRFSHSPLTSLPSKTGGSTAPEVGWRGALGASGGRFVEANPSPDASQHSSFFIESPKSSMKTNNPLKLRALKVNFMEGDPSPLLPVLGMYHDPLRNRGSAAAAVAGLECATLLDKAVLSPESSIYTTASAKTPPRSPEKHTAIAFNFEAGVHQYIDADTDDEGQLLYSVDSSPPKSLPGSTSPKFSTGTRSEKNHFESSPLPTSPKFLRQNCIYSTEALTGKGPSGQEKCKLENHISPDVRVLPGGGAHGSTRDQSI
Procedure: (§1) HEK-293 cells were transfected with human THIK-1, TREK-1, TWIK-2, or mouse THIK-1 cDNA cloned into pcDNA3.1, using either Fugene HD transfection reagent (Promega) or electroporation (MaxCyte STX instrument). Cells stably expressing the relevant genes were selected based on resistance to 500 μg/ml geneticin (Gibco). For human THIK-1 and TWIK-2 expressing cells, monoclonal lines were isolated by limited dilution cloning; mouse THIK-1 and human TREK-1 expressing cells were maintained as polyclonal pools. The HEK-293 pools and monoclones stably expressing the relevant genes were maintained in DMEM (Life Technologies), supplemented with 10% FCIII (HyClone, Fetal clone III) and 500 μg/ml geneticin. A CHO-Kv2.1 cell line was purchased from Millipore (accession NM_004975) and maintained in F12 (Life Technologies), supplemented with 10% FCSIII (Thermo Scientific) and 500 μg/ml geneticin (Life Technologies). […]
(§2) A fluorescence-based thallium influx assay (Molecular Devices potassium assay kit) was used to monitor channel activity. […] Using a fluorescent imaging plate reader (FLIPR) tetra plate reader, 15 μl thallium stimulus solution was added to the cell plate and the fluorescence signal recorded every second for 1 min (excitation: 470–495 nm, emission: 515–575 nm).

THIK-1 = target: T2, THIK-1 (Homo sapiens, UniProt Q9HB14); test: FLIPR thallium influx assay, HEK-hTHIK-1 cells; format: cell-based
T2 construct: expressed in transfected cells
T2 sequence (Q9HB14 1-408): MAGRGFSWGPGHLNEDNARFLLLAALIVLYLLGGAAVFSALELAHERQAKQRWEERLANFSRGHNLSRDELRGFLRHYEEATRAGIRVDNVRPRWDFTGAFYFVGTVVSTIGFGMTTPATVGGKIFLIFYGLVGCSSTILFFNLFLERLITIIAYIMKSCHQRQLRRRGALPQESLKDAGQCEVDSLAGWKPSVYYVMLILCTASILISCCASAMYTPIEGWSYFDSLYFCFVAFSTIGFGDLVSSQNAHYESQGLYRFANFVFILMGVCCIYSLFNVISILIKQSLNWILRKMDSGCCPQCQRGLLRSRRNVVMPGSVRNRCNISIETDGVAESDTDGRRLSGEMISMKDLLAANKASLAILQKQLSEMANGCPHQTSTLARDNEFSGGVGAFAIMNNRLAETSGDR
Procedure: HEK-293 cells were transfected with human THIK-1, TREK-1, TWIK-2, or mouse THIK-1 cDNA cloned into pcDNA3.1, using either Fugene HD transfection reagent (Promega) or electroporation (MaxCyte STX instrument). Cells stably expressing the relevant genes were selected based on resistance to 500 μg/ml geneticin (Gibco). For human THIK-1 and TWIK-2 expressing cells, monoclonal lines were isolated by limited dilution cloning; mouse THIK-1 and human TREK-1 expressing cells were maintained as polyclonal pools. The HEK-293 pools and monoclones stably expressing the relevant genes were maintained in DMEM (Life Technologies), supplemented with 10% FCIII (HyClone, Fetal clone III) and 500 μg/ml geneticin. A CHO-Kv2.1 cell line was purchased from Millipore (accession NM_004975) and maintained in F12 (Life Technologies), supplemented with 10% FCSIII (Thermo Scientific) and 500 μg/ml geneticin (Life Technologies). For thallium flux assays, banks of frozen cell aliquots were prepared the day prior to assay, cells were thawed into media and seeded into PDL coated 384-well plates (Corning) at 25,000 (human/mouse THIK-1, TREK-1) or 30,000 (TWIK-2) cells/well (25 μl/well). CHO-Kv2.1 cells were seeded into non-PDL coated plates (Corning) at 5000 cells/well. Plated cells were incubated overnight at 37 °C, 5% CO2 in a humidified atmosphere. For Q-Patch assays, cells were cultured for 7 days prior to assay, dissociated, and diluted to 1–2.5 million/ml in EX-CELL ACF serum free media containing HEPES (25 mM; Life Technologies), penicillin/streptomycin (100 U/ml, 100 μg/ml; Life Technologies) and a trypsin inhibitor (0.04 mg/ml).
A fluorescence-based thallium influx assay (Molecular Devices potassium assay kit) was used to monitor channel activity. In brief, component A was reconstituted in 17 ml of chloride-free assay buffer (130 mM sodium D-gluconate, 5 mM potassium D-gluconate, 2 mM calcium D-gluconate, 1 mM magnesium D-gluconate, 5 mM NaHCO3, 20 mM HEPES; pH adjusted to 7.4 with NaOH and filtered (0.45 μm filter)) and component C reconstituted in 30 μl of DMSO. Components A and C were combined, and probenecid was added (Life Technologies; final assay concentration (FAC) 4.75 mM for HEK cell lines and 2.47 mM for CHO-Kv2.1) to provide the final dye solution. Media was removed from the cell plates and replaced with dye (20 μl/well) and the plates were incubated at room temperature in the dark for 60 min. On the day of the assay, a diluted compound plate (3x FAC in 1.5% DMSO) was created. Control wells contained either DMSO vehicle (1.5%, 3x FAC) or tetrapentylammonium chloride (TPA; Sigma, 258962; 1.5 mM in 1.5% DMSO, 3x FAC). A 3x thallium stimulation plate was also prepared, to provide a FAC of either 1 mM (human THIK-1) or 3 mM (mouse THIK-1, TREK-1, TWIK-2) thallium sulphate (in assay buffer). For Kv2.1, the FAC of thallium sulphate was 2.6 mM and this was prepared in assay buffer containing potassium sulphate (Sigma P9458; FAC 23.3 mM). Following 60 min of dye loading, 10 μl from the 3x FAC compound plate was added into the cell plate, which was then incubated for 15 min at room temperature in the dark. Using a fluorescent imaging plate reader (FLIPR) tetra plate reader, 15 μl thallium stimulus solution was added to the cell plate and the fluorescence signal recorded every second for 1 min (excitation: 470–495 nm, emission: 515–575 nm).

[1] = test system: NLRP3-dependent release of IL-1β; test: LPS/ATP-induced IL-1β release from differentiated THP1 cells overexpressing human THIK-1; format: cell-based; conditions: Homo sapiens, THP-1; THIK-1 overexpressing differentiated THP1 cells, LPS/ATP; read-out: IC50, inhibition of IL-1β release
Procedure: THP1 cells, obtained from ATCC, are monocytes isolated from peripheral blood of a leukaemia patient. THP1 cells were grown in RPMI 1640 supplemented with 10% fetal bovine serum (FBS, Hyclone), 1% PenStrep (Invitrogen), and 1% GlutaMax (Invitrogen), and 0.05 mM of 2-mercaptoethanol. To overexpress human THIK-1, THP1 cells were differentiated with 100 ng/ml PMA for 24 h prior to transfection with THIK-1 mRNA synthesized as described in the supplementary material. Cell suspensions (2.5 × 10^6 cells in […]) in the presence of 200 μg/ml mRNA were electroporated with the MaxCyte (STX instrument) in an OC-25 MaxCyte Electroporation cassette using manufacturer settings for THP1 cells. Cell suspensions were transferred to a 6-well plate and allowed to recover for 20 min at 37 °C. Cells were seeded into 384-well plates (10,000 cells/well) for thallium flux assays or 96-well plates (50,000 cells/well) for inflammasome assays the following day. Overexpressing and mock-transfected cells were primed with 100 ng/ml of LPS for 3.5 h prior to addition of compounds 30 min before stimulation with 5 mM ATP. Supernatants were collected 2 h after addition of ATP and stored at −20 °C until the detection of IL-1β.
IL-1β from culture supernatants was measured with DuoSet ELISA kit (R&D Systems) following the manufacturer instructions.

Lck (h) = Lck (h) (Homo sapiens, UniProt P06239); test: Kinase selectivity; format: biochemical
Chain of Lck (h) (P06239 whole entry): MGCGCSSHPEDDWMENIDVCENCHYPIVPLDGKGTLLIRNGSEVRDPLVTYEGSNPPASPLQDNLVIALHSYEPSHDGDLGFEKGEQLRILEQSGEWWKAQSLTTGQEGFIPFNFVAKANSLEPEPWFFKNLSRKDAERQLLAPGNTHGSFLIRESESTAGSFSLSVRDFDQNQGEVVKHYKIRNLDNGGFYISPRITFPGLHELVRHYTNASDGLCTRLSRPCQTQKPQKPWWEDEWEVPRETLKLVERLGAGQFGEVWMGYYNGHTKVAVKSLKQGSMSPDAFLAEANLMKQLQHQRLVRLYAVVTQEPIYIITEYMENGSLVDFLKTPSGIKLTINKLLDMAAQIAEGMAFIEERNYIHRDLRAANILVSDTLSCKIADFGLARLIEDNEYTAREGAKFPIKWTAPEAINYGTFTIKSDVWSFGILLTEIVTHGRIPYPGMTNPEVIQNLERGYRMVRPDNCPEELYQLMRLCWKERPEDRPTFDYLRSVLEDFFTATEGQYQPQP
Description: Supplement mmc1.docx, table 1 | column: IC50 (μM)

TWIK-2 = target: T3, TWIK-2 (Homo sapiens, UniProt Q9Y257); test: FLIPR thallium influx assay, HEK-hTWIK-2 cells; format: cell-based; conditions: HEK-hTWIK-2, at 30 μM, compared to TPA controls; read-out: inhibition of constitutive activity
T3 construct: expressed in transfected cells
T3 sequence (Q9Y257 whole entry): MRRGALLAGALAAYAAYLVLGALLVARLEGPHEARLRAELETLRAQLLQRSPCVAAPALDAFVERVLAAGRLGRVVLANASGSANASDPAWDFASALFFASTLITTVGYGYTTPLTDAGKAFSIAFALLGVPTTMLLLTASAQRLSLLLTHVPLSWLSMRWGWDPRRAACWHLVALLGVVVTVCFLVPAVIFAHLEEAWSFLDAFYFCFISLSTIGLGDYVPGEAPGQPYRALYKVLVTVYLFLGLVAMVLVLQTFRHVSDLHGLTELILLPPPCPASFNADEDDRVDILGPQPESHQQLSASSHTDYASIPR
Procedure: as §1, §2

Question: Which results are given for `Nc1nonc1-c1nc2ccccc2n1Cc1ccncc1` [C101248]?
Answer: inhibition at 30 µM (Kv2.1): -3%; pIC50 (THIK-1; HEK-hTHIK-1, normalised to TPA controls, read-out: IC50, inhibition of THIK-1 constitutive activity (thallium influx)): 7.34; maximum inhibition (THIK-1; HEK-hTHIK-1, thallium influx, normalised to TPA controls): 102%; pIC50 (THIK-1; human THIK-1, read-out: IC50, inhibition of human THIK-1 (abstract)): ~7.30; potency relative to tetrapenthylammonium chloride (TPA) (THIK-1; human and mouse THIK-1 constitutive activity, thallium influx and Q-patch): 100 times; pIC50 [1]: 6.87; pIC50 (Lck (h)): < 5.00; inhibition at 30 µM (TWIK-2): 7%
